Assay results: patent US4472435A, “Benzophenone derivatives useful in treating heart failure” (Hoffman-La Roche Inc., priority 1980, dated 1984)

Experiments:
[1] = tested on: aldosterone; test: Aldosterone antagonism in adrenalectomised rats (urine volume, sodium and potassium excretion); type: in vivo, Female Holtzmann rats; settings: for Volume (urine volume), in %, based on control animals / [K+] (potassium excretion), in %, based on control animals / [Na+] (sodium excretion), in %, based on control animals: 30 min before aldosterone s.c., adrenalectomised rats, 3 h urine, control = aldosterone only
Procedure: These aldosterone-antagonistic properties can be dmonstrated in adrenalectomized rats as illustrated hereinafter.
If compounds of formula I are administered to the animals before the treatment with aldosterone, then there is observed, in comparison with the animals which are treated only with aldosterone (control animals), a pronounced increase of the sodium excretion (i.e. the sodium retention caused by aldosterone is antagonised), whereas the potassium excretion and the urine volume are influenced to a lesser extent.
The standard experiment is carried out as follows:
Female Holtzmann rats (150-180 g) are bilaterally adrenalectomised 70 to 74 hours before the beginning of the experiment. After the operation, the animals receive a customary rat dry feed and 0.9% sodium chloride solution for drinking. 16-17 hours before the beginning of the experiment the feed is removed from the animals, but they can subsequently drink, as before, 0.9% sodium chloride solution ad libitum. At the beginning of the experiment the substance to be tested as an aldosterone-antagonist is administered to the animals by means of a stomach probe. 30 minutes later the animals receive a subcutaneous injection of […] of aldosterone. After a further 90 minutes, the urinary bladders of the animals are emptied by careful suprapubic pressure, whereupon the animals are placed individually in metabolic cages without food and without drink. The urine of the animals is then collected for 3 hours, whereupon their urinary bladders are once more emptied. The spontaneously excreted urine and the remaining urine obtained at the conclusion of the experiment by pressing-out the urinary bladders are collected in graduated centrifuge glasses. Sodium and potassium concentrations in the urine are determined with a flame photometer.
(§1) The following Table contains results obtained in the previously described experiment with representative compounds of general formula I. In this Table there are given for each of the compounds figuring therein the dosage administered (in mg/kg p.o.) as well as the percentage variation in the urine volume, the sodium excretion and the potassium excretion in comparison with the control animals (i.e. in comparison with the animals treated only with aldosterone). Moreover, the Table contains data concerning the acute toxicity of the compounds investigated (LD 50 in mg/kg in the case of single oral administration to mice).

[2] = Acute toxicity, single oral administration; settings: mouse, in vivo, mice
Text: as §1

[3] = aldosterone in adrenalectomised rats, compared to untreated animals

Row | SMILES | Volume (urine volume), in %, based on control animals ([1]; 1 mg/kg p.o.) [%] | [K+] (potassium excretion), in %, based on control animals ([1]; 1 mg/kg p.o.) [%] | [Na+] (sodium excretion), in %, based on control animals ([1]; 1 mg/kg p.o.) [%] | LD50 [2] [mg/kg] | Volume (urine volume), in %, based on control animals ([1]; 0.1 mg/kg p.o.) [%] | [K+] (potassium excretion), in %, based on control animals ([1]; 0.1 mg/kg p.o.) [%] | [Na+] (sodium excretion), in %, based on control animals ([1]; 0.1 mg/kg p.o.) [%] | also measured
1 | CN(C(=O)CN)c1ccc(N)cc1C(=NO)c1ccccc1Cl [CH3, COCH2 NH2, OH, Cl, NH2, 2,4'-diamino-2'-[o-chloro-α-(hydroxyimino)benzyl]-N-methylacetanilide] | 155 | 94 | 254 | > 5000 | – | – | – | –
2 | NCC(=O)Nc1ccc([N+](=O)[O-])cc1C(=NO)c1ccccc1 [H, COCH2 NH2, OH, H, NO2, 2-amino-2'-[α-(hydroxyimino)-benzyl]-4'-nitro-acetanilide] | – | – | – | > 5000 | 152 | 97 | 230 | –
3 | NCC(=O)Nc1ccc([N+](=O)[O-])cc1C(=NO)c1ccccc1Cl [H, COCH2 NH2, OH, Cl, NO2, 2-amino-2'-[o-chloro-α-(hydroxyimino)-benzyl]-4'-nitro-acetanilide] | – | – | – | > 5000 | 114 | 99 | 211 | –
4 | C[C@]12CCC(=O)C=C1CC[C@@H]1[C@@H]2[C@@H](O)C[C@]2(C=O)[C@@H](C(=O)CO)CC[C@@H]12 [aldosterone, reference compound] | – | – | – | – | – | – | – | potassium excretion after aldosterone (in words) [1, 3]: increased potassium excretion; sodium excretion after aldosterone (in words) [1, 3]: pronounced reduction of the sodium excretion; urine volume after aldosterone (in words) [1, 3]: reduction of the excreted urine volume
5 | CC(=NO)c1ccc(NC(=O)CN)c(C(=NO)c2ccccc2F)c1 [H, COCH2 NH2, OH, F, drawing 7, 2-amino-2'-[o-fluoro-α-(hydroxyimino)benzyl]-4'-[1-(hydroxyimino)ethyl]acetanilide] | 156 | 102 | 327 | > 5000 | – | – | – | Volume (urine volume), in %, based on control animals ([1]; 0.01 mg/kg p.o.): 161%; [K+] (potassium excretion), in %, based on control animals ([1]; 0.01 mg/kg p.o.): 86%; [Na+] (sodium excretion), in %, based on control animals ([1]; 0.01 mg/kg p.o.): 215%
